Measurements published in ChEMBL document CHEMBL1141829, “10'-Hydroxyusambarensine, a new antimalarial bisindole alkaloid from the roots of Strychnos usambarensis” (J Nat Prod, 1999).
Values after ≈ are worked out from the molar mass of the structure shown.

System: Plasmodium falciparum
Test: Antiplasmodial activity after 36 hrs against chloroquine-resistant Plasmodium falciparum W2 in human erythrocytes by [3H]hypoxanthine uptake
Format: functional, organism-based

First: C/C=C1/CN2CCc3c([nH]c4ccccc34)[C@@H]2C[C@@H]1Cc1nccc2c1[nH]c1ccccc12 [USAMBARENSINE]
Second: C/C=C1\CN2CCc3c([nH]c4ccccc34)[C@@H]2C[C@@H]1Cc1nccc2c1[nH]c1ccc(O)cc12
The IC50 of the first is 1.7-fold higher: 0.265 µg/mL (≈ 0.613 µM) for the first, 0.16 µg/mL (≈ 0.357 µM) for the second.

`C/C=C1/CN2CCc3c([nH]c4ccccc34)[C@@H]2C[C@@H]1Cc1nccc2c1[nH]c1ccc(O)cc12` gave an IC50 of 0.122 µg/mL (≈ 0.272 µM).

System: Plasmodium falciparum
Test: Antiplasmodial activity after 36 hrs against chloroquine-sensitive Plasmodium falciparum FCA 20 in human erythrocytes by [3H]hypoxanthine uptake
Format: functional, organism-based

`C/C=C1/CN2CCc3c([nH]c4ccccc34)[C@@H]2C[C@@H]1Cc1nccc2c1[nH]c1ccccc12` [USAMBARENSINE] and `C/C=C1\CN2CCc3c([nH]c4ccccc34)[C@@H]2C[C@@H]1Cc1nccc2c1[nH]c1ccc(O)cc12` are within 1.5-fold of each other in IC50: 0.655 µg/mL (≈ 1.51 µM) for the first, 0.48 µg/mL (≈ 1.07 µM) for the second.

`C/C=C1/CN2CCc3c([nH]c4ccccc34)[C@@H]2C[C@@H]1Cc1nccc2c1[nH]c1ccc(O)cc12` gave an IC50 of 0.113 µg/mL (≈ 0.252 µM).
